Laboratory results from patent publication US20220323406A1, “METHODS AND COMPOSITIONS FOR DIFFERENTIATING STEM CELLS” (Massachusetts Institute of Technology, priority 2019, published 2022).

How the values were obtained:
[1] = test system: ENR+CD organoids (ISC to Paneth cell differentiation); experiment: Primary screen: basal (non-stimulated) lysozyme secretion LYZ.NS, 2.5-D 384-well ENR+CD organoid differentiation; type: cell-based, mouse; conditions: primary screen; for Dose.FC.LYZ.NS: FC relative to plate median; for Z.LYZ.NS: standard z score
Excerpt: (§1) High-throughput screening.

[2] = test system: ENR+CD organoids (ISC to Paneth cell differentiation); experiment: Primary screen: CCh-stimulated lysozyme secretion LYZ.S, 2.5-D 384-well ENR+CD organoid differentiation; type: cell-based, mouse; conditions: primary screen, FC relative to plate median
Excerpt: as §1

ENR+CD organoids = experiment: Primary screen: ATP (CellTiter-Glo 3D, CTG) cell number/viability, 2.5-D 384-well ENR+CD organoids; conditions: primary screen; for Dose.FC.CTG: FC relative to plate median; for Z.CTG: standard z score;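 for all read-outs here: compounds given at plating and again on day 3 over a 6-day differentiation from ENR+CV stem-cell-enriched precursors, ATP measured on day 6, plate median as control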

For `O=C(Nc1ccncc1)c1cc([N+](=O)[O-])ccc1Cl` [T0070907], the Dose.FC.LYZ.NS ([1]; dose 0.08 uM) was 0.010 log2 fold change, the Z.LYZ.NS ([1]; dose 0.08 uM) was 0.084 and the Dose.FC.LYZ.NS ([1]; dose 0.40 uM) was −0.003 log2 fold change. It also gave a Z.LYZ.NS ([1]; dose 0.40 uM) of −0.029, a Dose.FC.LYZ.NS ([1]; dose 2.00 uM) of 0.043 log2 fold change and a Z.LYZ.NS ([1]; dose 2.00 uM) of 0.373. For the same compound, the Dose.FC.LYZ.NS ([1]; dose 10.00 uM) was −0.218 log2 fold change, the Z.LYZ.NS ([1]; dose 10.00 uM) was −1.897 and the Dose.FC.LYZ.S ([2]; dose 0.08 uM) was −0.005 log2 fold change. It also gave a Dose.FC.LYZ.S ([2]; dose 0.40 uM) of −0.001 log2 fold change, a Dose.FC.LYZ.S ([2]; dose 2.00 uM) of 0.081 log2 fold change and a Dose.FC.LYZ.S ([2]; dose 10.00 uM) of −0.312 log2 fold change. For the same compound, the Dose.FC.CTG (ENR+CD organoids; dose 0.08 uM) was 0.112 log2 fold change, the Z.CTG (ENR+CD organoids; dose 0.08 uM) was 0.267 and the Dose.FC.CTG (ENR+CD organoids; dose 0.40 uM) was 0.026 log2 fold change. The Z.CTG (ENR+CD organoids; dose 0.40 uM) was 0.062, the Dose.FC.CTG (ENR+CD organoids; dose 2.00 uM) was 0.050 log2 fold change and the Z.CTG (ENR+CD organoids; dose 2.00 uM) was 0.119. For the same compound, the Dose.FC.CTG (ENR+CD organoids; dose 10.00 uM) was −0.756 log2 fold change and the Z.CTG (ENR+CD organoids; dose 10.00 uM) was −1.806.
For `O=S(=O)(c1ccccc1)N(CC(F)(F)F)c1ccc(C(O)(C(F)(F)F)C(F)(F)F)cc1` [T0901317], the Dose.FC.LYZ.NS ([1]; dose 0.08 uM) was 0.086 log2 fold change, the Z.LYZ.NS ([1]; dose 0.08 uM) was 0.748 and the Dose.FC.LYZ.NS ([1]; dose 0.40 uM) was 0.042 log2 fold change. It also gave a Z.LYZ.NS ([1]; dose 0.40 uM) of 0.369, a Dose.FC.LYZ.NS ([1]; dose 2.00 uM) of 0.074 log2 fold change and a Z.LYZ.NS ([1]; dose 2.00 uM) of 0.644. For the same compound, the Dose.FC.LYZ.NS ([1]; dose 10.00 uM) was −0.015 log2 fold change, the Z.LYZ.NS ([1]; dose 10.00 uM) was −0.130 and the Dose.FC.LYZ.S ([2]; dose 0.08 uM) was 0.111 log2 fold change. The Dose.FC.LYZ.S ([2]; dose 0.40 uM) was 0.077 log2 fold change, the Dose.FC.LYZ.S ([2]; dose 2.00 uM) was 0.070 log2 fold change and the Dose.FC.LYZ.S ([2]; dose 10.00 uM) was −0.034 log2 fold change. It also gave a Dose.FC.CTG (ENR+CD organoids; dose 0.08 uM) of 0.047 log2 fold change, a Dose.FC.CTG (ENR+CD organoids; dose 0.40 uM) of 0.178 log2 fold change and a Dose.FC.CTG (ENR+CD organoids; dose 2.00 uM) of 0.096 log2 fold change. It also gave a Dose.FC.CTG (ENR+CD organoids; dose 10.00 uM) of 0.114 log2 fold change.
In the case of `CNC(=O)c1ccccc1Nc1nc(Nc2ccc(N3CCOCC3)cc2OC)ncc1Cl` [TAE226 (NVP-TAE226)], the Dose.FC.LYZ.NS ([1]; dose 0.08 uM) is reported as −0.256 log2 fold change, the Z.LYZ.NS ([1]; dose 0.08 uM) is reported as −2.226 and the Dose.FC.LYZ.NS ([1]; dose 0.40 uM) is reported as −0.304 log2 fold change. It also gave a Z.LYZ.NS ([1]; dose 0.40 uM) of −2.650, a Dose.FC.LYZ.NS ([1]; dose 2.00 uM) of −0.323 log2 fold change and a Z.LYZ.NS ([1]; dose 2.00 uM) of −2.813. For the same compound, the Dose.FC.LYZ.NS ([1]; dose 10.00 uM) was −0.292 log2 fold change, the Z.LYZ.NS ([1]; dose 10.00 uM) was −2.545 and the Dose.FC.LYZ.S ([2]; dose 0.08 uM) was −0.333 log2 fold change. The Dose.FC.LYZ.S ([2]; dose 0.40 uM) was −0.376 log2 fold change, the Dose.FC.LYZ.S ([2]; dose 2.00 uM) was −0.400 log2 fold change and the Dose.FC.LYZ.S ([2]; dose 10.00 uM) was −0.426 log2 fold change. For the same compound, the Dose.FC.CTG (ENR+CD organoids; dose 0.08 uM) was −0.472 log2 fold change, the Z.CTG (ENR+CD organoids; dose 0.08 uM) was −1.127 and the Dose.FC.CTG (ENR+CD organoids; dose 0.40 uM) was −1.126 log2 fold change. The Z.CTG (ENR+CD organoids; dose 0.40 uM) was −2.689, the Dose.FC.CTG (ENR+CD organoids; dose 2.00 uM) was −1.284 log2 fold change and the Z.CTG (ENR+CD organoids; dose 2.00 uM) was −3.068. For the same compound, the Dose.FC.CTG (ENR+CD organoids; dose 10.00 uM) was −0.989 log2 fold change and the Z.CTG (ENR+CD organoids; dose 10.00 uM) was −2.363.
In the case of `CNC(=O)c1ccc2cc([C@@]3(O)CCn4cncc43)ccc2c1` [TAK-700 (Orteronel)], the Dose.FC.LYZ.NS ([1]; dose 0.08 uM) is reported as 0.176 log2 fold change, the Z.LYZ.NS ([1]; dose 0.08 uM) is reported as 1.535 and the Dose.FC.LYZ.NS ([1]; dose 0.40 uM) is reported as 0.182 log2 fold change. The Z.LYZ.NS ([1]; dose 0.40 uM) was 1.585, the Dose.FC.LYZ.NS ([1]; dose 2.00 uM) was 0.121 log2 fold change and the Z.LYZ.NS ([1]; dose 2.00 uM) was 1.058. The Dose.FC.LYZ.NS ([1]; dose 10.00 uM) was −0.002 log2 fold change, the Z.LYZ.NS ([1]; dose 10.00 uM) was −0.018 and the Dose.FC.LYZ.S ([2]; dose 0.08 uM) was 0.113 log2 fold change. It also gave a Dose.FC.LYZ.S ([2]; dose 0.40 uM) of 0.090 log2 fold change, a Dose.FC.LYZ.S ([2]; dose 2.00 uM) of 0.093 log2 fold change and a Dose.FC.LYZ.S ([2]; dose 10.00 uM) of 0.032 log2 fold change. It also gave a Dose.FC.CTG (ENR+CD organoids; dose 0.08 uM) of −0.276 log2 fold change, a Z.CTG (ENR+CD organoids; dose 0.08 uM) of −0.659 and a Dose.FC.CTG (ENR+CD organoids; dose 0.40 uM) of −0.024 log2 fold change. The Z.CTG (ENR+CD organoids; dose 0.40 uM) was −0.056, the Dose.FC.CTG (ENR+CD organoids; dose 2.00 uM) was −0.084 log2 fold change and the Z.CTG (ENR+CD organoids; dose 2.00 uM) was −0.202. It also gave a Dose.FC.CTG (ENR+CD organoids; dose 10.00 uM) of 0.092 log2 fold change and a Z.CTG (ENR+CD organoids; dose 10.00 uM) of 0.219.
Work on `Cc1cc(OCCCS(C)(=O)=O)cc(C)c1-c1cccc(COc2ccc3c(c2)OC[C@H]3CC(=O)O)c1` [TAK-875] yielded a Dose.FC.LYZ.NS ([1]; dose 0.08 uM) of 0.096 log2 fold change, a Z.LYZ.NS ([1]; dose 0.08 uM) of 0.839 and a Dose.FC.LYZ.NS ([1]; dose 0.40 uM) of 0.023 log2 fold change. The Z.LYZ.NS ([1]; dose 0.40 uM) was 0.199, the Dose.FC.LYZ.NS ([1]; dose 2.00 uM) was −0.043 log2 fold change and the Z.LYZ.NS ([1]; dose 2.00 uM) was −0.378. The Dose.FC.LYZ.NS ([1]; dose 10.00 uM) was −0.138 log2 fold change, the Z.LYZ.NS ([1]; dose 10.00 uM) was −1.199 and the Dose.FC.LYZ.S ([2]; dose 0.08 uM) was 0.212 log2 fold change. The Dose.FC.LYZ.S ([2]; dose 0.40 uM) was 0.014 log2 fold change, the Dose.FC.LYZ.S ([2]; dose 2.00 uM) was −0.031 log2 fold change and the Dose.FC.LYZ.S ([2]; dose 10.00 uM) was −0.060 log2 fold change. For the same compound, the Dose.FC.CTG (ENR+CD organoids; dose 0.08 uM) was 0.239 log2 fold change, the Dose.FC.CTG (ENR+CD organoids; dose 0.40 uM) was −0.164 log2 fold change and the Dose.FC.CTG (ENR+CD organoids; dose 2.00 uM) was −0.157 log2 fold change. For the same compound, the Dose.FC.CTG (ENR+CD organoids; dose 10.00 uM) was −0.291 log2 fold change.
